Experimental data reported in patent US9694016B2 (Novartis AG, priority 2013, dated 2017).

The compounds below were run against b-Raf (V600E) (Homo sapiens (Human), UniProt P15056, V600E). Settings: read-out: b-Raf IC-50; AlphaScreen, 60 min pre-incubation, 3 hours reaction.
Sequence of b-Raf (V600E) (P15056 whole entry V600E): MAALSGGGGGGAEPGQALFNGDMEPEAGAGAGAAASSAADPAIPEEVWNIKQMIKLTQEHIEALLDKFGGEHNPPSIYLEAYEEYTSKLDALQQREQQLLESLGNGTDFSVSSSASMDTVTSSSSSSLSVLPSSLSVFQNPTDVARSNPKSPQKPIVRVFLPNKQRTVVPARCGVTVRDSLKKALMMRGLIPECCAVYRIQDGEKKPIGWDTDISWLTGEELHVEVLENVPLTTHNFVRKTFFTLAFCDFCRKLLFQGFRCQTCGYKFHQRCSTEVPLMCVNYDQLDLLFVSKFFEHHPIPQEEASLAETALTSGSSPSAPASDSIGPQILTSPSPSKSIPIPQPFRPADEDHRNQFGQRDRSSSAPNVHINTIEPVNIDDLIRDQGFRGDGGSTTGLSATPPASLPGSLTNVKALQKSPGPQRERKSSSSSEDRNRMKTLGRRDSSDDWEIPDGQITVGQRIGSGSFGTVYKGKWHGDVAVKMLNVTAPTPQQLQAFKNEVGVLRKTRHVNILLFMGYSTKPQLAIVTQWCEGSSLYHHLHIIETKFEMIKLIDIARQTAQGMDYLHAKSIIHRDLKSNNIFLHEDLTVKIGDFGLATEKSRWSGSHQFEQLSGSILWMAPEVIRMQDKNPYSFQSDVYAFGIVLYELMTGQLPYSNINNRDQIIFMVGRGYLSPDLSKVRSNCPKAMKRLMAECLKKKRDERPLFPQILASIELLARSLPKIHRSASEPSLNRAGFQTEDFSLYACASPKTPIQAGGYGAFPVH

IC50 | SMILES
6.3 nM | Cc1ccc(C(=O)Nc2cccc(C(C)(C)O)c2)cc1-c1cc(N2CCOCC2)c(=O)n(C)c1 [Example 439, N-(3-(2-hydroxypropan-2-yl)phenyl)-4-methyl-3-(1-methyl-5-morpholino-6-oxo-1,6-dihydropyridin-3-yl)benzamide]
14.9 nM | Cc1ccc(NC(=O)c2ccnc(C(C)(C)C#N)c2)cc1-c1cc(N2CCOCC2)nc(NC2CNC2)n1 [Example 786, N-(3-(2-(azetidin-3-ylamino)-6-morpholinopyrimidin-4-yl)-4-methylphenyl)-2-(2-cyanopropan-2-yl)isonicotinamide]
1.9 nM | Cc1ccc(NC(=O)c2ccnc(C(C)(C)C#N)c2)cc1-c1cc(N2CCOCC2)nc(N[C@H](C)CO)n1 [Example 749, (R)-2-(2-cyanopropan-2-yl)-N-(3-(2-((1-hydroxypropan-2-yl)amino)-6-morpholinopyrimidin-4-yl)-4-methylphenyl)isonicotinamide]
4.3 nM | Cc1ccc(NC(=O)c2cc(CN(C)C)cc(C(F)(F)F)c2)cc1-c1cc(N2CCOCC2)c(=O)n(C)n1 [Example 661, 3-((dimethylamino)methyl)-N-(4-methyl-3-(1-methyl-5-morpholino-6-oxo-1,6-dihydropyridazin-3-yl)phenyl)-5-(trifluoromethyl)benzamide]
8.8 nM | Cc1ncc(NC(=O)c2ccnc(S(C)(=O)=O)c2)cc1-c1cc(N2CCOCC2)n2nccc2n1 [Example 807, N-(6-methyl-5-(7-morpholinopyrazolo[1,5-a]pyrimidin-5-yl)pyridin-3-yl)-2-(methylsulfonyl)isonicotinamide]

Same assay, conditions: read-out: b-Raf IC-50; AlphaScreen, 60 min pre-incubation, reaction 3 hours at room temperature

IC50 | SMILES
8.59 nM | Cc1ncc(NC(=O)c2ccnc(C(C)(C)F)c2)cc1-c1cc(N2CCOCC2)nc(N2CC(C)(O)C2)c1 [Example 1106, 2-(2-fluoropropan-2-yl)-N-(2′-(3-hydroxy-3-methylazetidin-1-yl)-2-methyl-6′-morpholino-[3,4′-bipyridin]-5-yl)isonicotinamide]
12.9 nM | Cc1ccc(NC(=O)c2ccnc(C(C)(C)C#N)c2)cc1-c1cc(NC[C@@H](C)O)nc(N2CCOCC2)n1 [Example 1026, (R)-2-(2-cyanopropan-2-yl)-N-(3-(6-((2-hydroxypropyl)amino)-2-morpholinopyrimidin-4-yl)-4-methylphenyl)isonicotinamide]
6.89 nM | Cc1ccc(NC(=O)c2ccnc(C(C)(C)O)c2)cc1-c1cc(N2CCOCC2)c(S(C)(=O)=O)nn1 [Example 932, 2-(2-hydroxypropan-2-yl)-N-(4-methyl-3-(6-(methylsulfonyl)-5-morpholinopyridazin-3-yl)phenyl)isonicotinamide]
2.82 nM | Cc1ncc(NC(=O)c2ccnc(C(F)(F)F)c2)cc1-c1cc(C2COCCO2)nc(N2CCOCC2)c1 (stereo not shown) [Example 1165, N-(2′-(1,4-dioxan-2-yl)-2-methyl-6′-morpholino-[3,4′-bipyridin]-5-yl)-2-(trifluoromethyl)isonicotinamide]
0.7 nM | Cc1ccc(NC(=O)c2cnnc(C(F)(F)F)c2)cc1-c1cc(N2CCOCC2)c2nccn2c1 [Example 852]
1.87 nM | CCOc1cc(-c2cc(NC(=O)c3ccnc(C(F)F)c3)cnc2C)cc(N2CCOCC2)n1 [Example 1146, 2-(difluoromethyl)-N-(2′-ethoxy-2-methyl-6′-morpholino-[3,4′-bipyridin]-5-yl)isonicotinamide]
2.16 nM | Cc1ccc(NC(=O)c2ccnc(C(F)(F)F)c2)cc1-c1cc(N2CCNCC2)nc(N2CCOCC2)c1 [Example 1128, N-(4-methyl-3-(2-morpholino-6-(piperazin-1-yl)pyridin-4-yl)phenyl)-2-(trifluoromethyl)isonicotinamide]
71.4 nM | Cc1ncc(NC(=O)c2ccnc(C(C)(C)C)c2)cc1-c1cc(N2CCOCC2)nc(N2CC(O)C2)c1 [Example 1089, 2-(tert-butyl)-N-(2′-(3-hydroxyazetidin-1-yl)-2-methyl-6′-morpholino-[3,4′-bipyridin]-5-yl)isonicotinamide]
3.58 nM | Cc1ncc(NC(=O)c2ccnc(C(C)(C)F)c2)cc1-c1cc(N2CCOCC2)c(OC(C)C)nn1 [Example 911, 2-(2-fluoropropan-2-yl)-N-(5-(6-isopropoxy-5-morpholinopyridazin-3-yl)-6-methylpyridin-3-yl)isonicotinamide]
32.6 nM | Cc1ncc(NC(=O)c2ccnc(C(C)(C)C#N)c2)cc1-c1cc(N2CCOCC2)c2nccn2c1 [Example 881, 2-(2-cyanopropan-2-yl)-N-(6-methyl-5-(8-morpholinoimidazo[1,2-a]pyridin-6-yl)pyridin-3-yl)isonicotinamide]
3.3 nM | Cc1ccc(C(=O)Nc2cccc(C(F)(F)F)c2)cc1-c1nc2c(c(N3CCOCC3)n1)CNC2 [Example 889, 4-methyl-3-(4-morpholino-6,7-dihydro-5H-pyrrolo[3,4-d]pyrimidin-2-yl)-N-(3-(trifluoromethyl)phenyl)benzamide]
5.46 nM | Cc1ncc(NC(=O)c2cc(C(F)(F)F)ccn2)cc1-c1cc(N2CCOCC2)c(S(C)(=O)=O)nn1 [Example 923, N-(6-methyl-5-(6-(methylsulfonyl)-5-morpholinopyridazin-3-yl)pyridin-3-yl)-4-(trifluoromethyl)picolinamide]

Same assay, conditions: read-out: b-Raf IC-50; Table 2; AlphaScreen, 3 hours reaction

IC50 | SMILES
0.5 nM | Cc1ncc(NC(=O)c2cnnc(C(F)(F)F)c2)cc1-c1cnc(N(C)C)c(N2CCOCC2)c1 [Example 270, N-(6′-(dimethylamino)-2-methyl-5′-morpholino-[3,3′-bipyridin]-5-yl)-6-(trifluoromethyl)pyridazine-4-carboxamide]
36.4 nM | Cc1ccc(NC(=O)c2cccc(OC(F)(F)F)c2)cc1-c1cc(N2CCOCC2)c(=O)n(C)c1 [Example 340, N-(4-methyl-3-(1-methyl-5-morpholino-6-oxo-1,6-dihydropyridin-3-yl)phenyl)-3-(trifluoromethoxy)benzamide]
3.1 nM | Cc1ccc(NC(=O)c2ccnc(S(C)(=O)=O)c2)cc1-c1cc(N2CCOCC2)c(=O)n(C)c1 [Example 184, N-(4-methyl-3-(1-methyl-5-morpholino-6-oxo-1,6-dihydropyridin-3-yl)phenyl)-2-(methylsulfonyl)isonicotinamide]
4.3 nM | Cn1cc(-c2cc(NC(=O)c3ccnc(C(C)(F)F)c3)ccc2F)cc(N2CCOCC2)c1=O [Example 419]
12.9 nM | COc1ncc(-c2cc(NC(=O)c3ccnc(C(C)C)c3)cnc2C)cc1N1CCOCC1 [Example 323, 2-isopropyl-N-(6′-methoxy-2-methyl-5′-morpholino-[3,3′-bipyridin]-5-yl)isonicotinamide]
0.4 nM | Cc1ccc(NC(=O)c2cnnc(C3CC3)c2)cc1-c1cnc(OC2CCOCC2)c(N2CCOCC2)c1 [Example 276, 6-cyclopropyl-N-(4-methyl-3-(5-morpholino-6-((tetrahydro-2H-pyran-4-yl)oxy)pyridin-3-yl)phenyl)pyridazine-4-carboxamide]
1.8 nM | C=C(C)c1ccc(F)c(NC(=O)c2ccc(C)c(-c3cnc(OCC)c(N4CCOCC4)c3)c2)c1 [Example 256, 3-(6-ethoxy-5-morpholinopyridin-3-yl)-N-(2-fluoro-5-(prop-1-en-2-yl)phenyl)-4-methylbenzamide]
1100 nM | CCn1cc(C(=O)Nc2cnc(C)c(-c3cc(N4CCOCC4)c(=O)n(C)c3)c2)c(C)n1 [Example 373, N-(1′,2-dimethyl-5′-morpholino-6′-oxo-1′,6′-dihydro-[3,3′-bipyridin]-5-yl)-1-ethyl-3-methyl-1H-pyrazole-4-carboxamide]
